Reference: patent publication US8816095B2, “Na channels, disease, and related assays and compositions” (Georgetown University, priority 2008, dated 2014)

How the values were obtained:
[1] = test system: Na+ channel site 2 binding site; assay: [3H]-BTX assay, rat forebrain membranes; settings: ± S.E.M., n in brackets
Method: In order to determine if the hermitamides bind to the sodium channel, the natural products, their enantiomers, and the racemic mixture were tested for their ability to displace [^3H]-batrachatoxin. Batrachatoxin is a lipid-soluble neurotoxin that binds to site 2 of the sodium channel. This site is known to overlap with the local anesthetic binding […]. Ligands known to bind to […] of the sodium channel include anesthetics, anticonvulsants and antiarrthymics. As a control, phenyloin, a clinically-used sodium channel blocker that is known to displace [^3H]BTX was also included.
The assays were run at 10 μM and recorded as percent displacement of BTX.
Briefly, rat forebrain membranes (10 mg tissue/well) were incubated with [^3H]-BTX (30-60 Ci/mmol). […] The reaction was terminated by rapid vacuum filtration of the reaction contents onto glass fiber filters. Radioactivity trapped onto the filters was determined and compared with control values to ascertain any interactions of the test compound with the Na^+ channel site 2 binding site. Aconitine (1 μM) was used as a positive control (Sigma Aldrich, Inc., St. Louis, Mo.).

human Nav1.2 = target: T1, human Nav1.2 (Homo sapiens, UniProt Q99250); assay: Sodium channel electrophysiology of hermitamides (patch clamp); assay type: cell-based; settings: HEK human Nav1.2
T1 construct: host or cells: HEK
Method: To test whether these compounds were functionally active as sodium channel blockers, the effects of the hermitamides were tested on human embryonic kidney cells (HEK) cells stably expressing human Nav1.2 using the […].
Human embryonic kidney cells (HEK) cells stably expressing human Nav1.2 were a kind gift from Dr. H. A. Hartmann (University of Baltimore, Md., USA) and were grown in DMEM/F12 media (Invitrogen, Corp, CA, USA) supplemented with 10% fetal bovine serum, penicillin (100 U/ml), streptomycin (100 μg/ml) and G418 (500 μg/ml; Sigma, Mo., USA). Cells were grown in a humidified atmosphere of 5% CO2 and 95% air at 37° C.
Sodium currents were recorded using the whole-cell configuration of the patch clamp recording technique with an Axopatch 200 amplifier (Axon Instruments, Foster City, Calif.). All voltage protocols were applied using pCLAMP 9 software (Axon, USA) and a Digidata 1322A (Axon, USA). Currents were amplified and low pass filtered (2 kHz) and sampled at 33 kHz. Borosilicate glass pipettes were pulled using a Brown-Flaming puller (model P87, Sutter Instruments Co, Novato, Calif.) and heat polished to produce electrode resistances of […] when filled with the following electrode solution (in mM); CsCl 130, MgCl2 1, MgATP 5, BAPTA 10, HEPES 5 (pH adjusted to 7.4 with CsOH). Cells were plated on glass coverslips and superfused with solution containing the following composition; (in mM) NaCl 130, KCl 4, CaCl2 1, MgCl2 5, HEPES 5, and glucose 5 (pH adjusted to 7.4 with NaOH).
(S)-Hermitamide B was prepared as 100 mM stock solutions in DMSO and diluted to the desired concentration in perfusion solution. The maximum DMSO concentration used was 0.1% and had no effect on current amplitude. All experiments were performed at room temperature (20-22° C.). After establishing whole-cell, a minimum series resistance compensation of 75% was applied. Sodium currents were elicited by a depolarizing step from a holding potential of −100 mV to +10 mV for a duration of 25 ms at 15 s intervals. (S)-Hermitamide B was applied after a 3 min control period and continued until a steady state current amplitude was observed. All data represent percentage mean block±standard error of the mean (S.E.M.).

CWR22rv-1 cells = assay: CWR22rv-1 prostate cancer cell death (propidium iodide, FACS); assay type: cell-based, human; settings: 25 μM, after 24 h
Method: CWR22Rv1 cells (ATCC, Manassas, Va.) were seeded in 6 well tissue culture plate at density of 300,000 cells/well and maintained in RPMI 1640 (Mediatech, Herndon, Va.) containing 10% fetal bovine serum, 2.5 mM L-glutamine, and penicillin-streptomycin (100 IU/ml and 100 μg/ml, respectively) at 37° C. with 5% CO2. Cells were then switched to serum free RPMI media overnight prior to drug treatment. Compounds were dissolved in 100% dimethylsulfoxide (DMSO) and diluted to the desired concentrations in serum free RPMI. Cells were treated with indicated drug concentrations (in triplicate per treatment point) for 24, 48, 72 hour. After treatment, cells were harvested by trypsinization and fixed in 70% ethanol. The fixed cells were then stained with propidium iodide (50 μg/ml) after treatment with RNase (5 μg/ml). The stained cells were analyzed for DNA content using FACSsort (Becton Dickinson). Cell cycle fractions were quantified with Cell Quest (Becton Dickinson) or ModFit LT (Verity Software House).

site 2 of the VGSC = assay: [3H]-BTX-B displacement assay at site 2; assay type: binding, rat; settings: Screen at 40 μM, 2 replicates, referenced to Aconitine

T1 sequence (Q99250 whole entry): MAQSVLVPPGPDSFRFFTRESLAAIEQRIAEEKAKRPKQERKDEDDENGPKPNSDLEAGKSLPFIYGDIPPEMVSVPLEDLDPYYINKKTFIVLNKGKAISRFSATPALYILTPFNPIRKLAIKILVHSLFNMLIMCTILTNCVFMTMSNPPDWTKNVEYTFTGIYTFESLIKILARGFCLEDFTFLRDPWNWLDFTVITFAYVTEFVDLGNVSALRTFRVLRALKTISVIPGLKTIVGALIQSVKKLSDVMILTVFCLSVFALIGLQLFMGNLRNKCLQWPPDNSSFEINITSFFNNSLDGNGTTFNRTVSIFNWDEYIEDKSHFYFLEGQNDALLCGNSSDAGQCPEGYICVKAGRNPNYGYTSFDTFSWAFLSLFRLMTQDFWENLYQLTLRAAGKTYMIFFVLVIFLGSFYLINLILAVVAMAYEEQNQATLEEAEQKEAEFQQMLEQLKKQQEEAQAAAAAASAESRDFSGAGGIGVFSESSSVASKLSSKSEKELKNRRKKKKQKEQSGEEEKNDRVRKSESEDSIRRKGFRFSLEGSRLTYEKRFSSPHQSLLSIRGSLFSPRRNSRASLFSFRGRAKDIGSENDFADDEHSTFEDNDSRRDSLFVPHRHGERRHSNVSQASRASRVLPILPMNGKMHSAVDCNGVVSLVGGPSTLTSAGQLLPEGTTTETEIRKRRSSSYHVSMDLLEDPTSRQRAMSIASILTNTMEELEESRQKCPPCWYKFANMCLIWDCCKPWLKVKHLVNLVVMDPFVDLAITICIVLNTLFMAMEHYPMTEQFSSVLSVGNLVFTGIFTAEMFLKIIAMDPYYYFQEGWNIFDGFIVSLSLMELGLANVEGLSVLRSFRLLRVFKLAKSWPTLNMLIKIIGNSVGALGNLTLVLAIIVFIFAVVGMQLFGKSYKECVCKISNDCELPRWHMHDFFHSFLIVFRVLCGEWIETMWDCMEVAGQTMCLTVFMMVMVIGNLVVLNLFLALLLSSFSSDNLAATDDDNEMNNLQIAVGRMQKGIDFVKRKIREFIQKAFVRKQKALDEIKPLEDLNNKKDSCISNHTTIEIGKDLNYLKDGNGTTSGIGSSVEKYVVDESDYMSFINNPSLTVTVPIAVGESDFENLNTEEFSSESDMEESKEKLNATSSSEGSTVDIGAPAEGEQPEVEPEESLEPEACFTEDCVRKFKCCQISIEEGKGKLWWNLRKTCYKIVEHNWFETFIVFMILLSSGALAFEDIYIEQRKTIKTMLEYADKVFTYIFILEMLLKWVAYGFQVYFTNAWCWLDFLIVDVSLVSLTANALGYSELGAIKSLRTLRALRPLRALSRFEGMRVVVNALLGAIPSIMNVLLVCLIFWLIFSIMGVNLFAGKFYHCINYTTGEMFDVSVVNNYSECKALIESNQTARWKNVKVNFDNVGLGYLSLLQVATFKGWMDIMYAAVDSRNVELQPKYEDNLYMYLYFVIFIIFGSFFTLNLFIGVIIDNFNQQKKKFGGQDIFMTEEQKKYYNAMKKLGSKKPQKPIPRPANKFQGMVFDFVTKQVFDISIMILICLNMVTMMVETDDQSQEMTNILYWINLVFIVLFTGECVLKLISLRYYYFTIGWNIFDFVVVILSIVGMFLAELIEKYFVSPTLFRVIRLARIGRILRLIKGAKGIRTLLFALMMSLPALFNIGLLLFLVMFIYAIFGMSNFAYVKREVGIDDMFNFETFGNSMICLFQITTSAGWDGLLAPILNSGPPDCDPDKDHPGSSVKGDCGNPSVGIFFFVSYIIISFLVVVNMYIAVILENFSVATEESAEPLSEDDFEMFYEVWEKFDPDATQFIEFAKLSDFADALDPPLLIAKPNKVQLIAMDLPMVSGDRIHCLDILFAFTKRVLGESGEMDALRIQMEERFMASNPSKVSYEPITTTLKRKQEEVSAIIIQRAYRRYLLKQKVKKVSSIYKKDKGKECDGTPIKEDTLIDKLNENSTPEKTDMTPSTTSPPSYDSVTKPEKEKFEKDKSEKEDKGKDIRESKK

In the case of `CCCCCCC[C@@H](C/C=C/CCC(=O)NCCc1ccccc1)OC` (racemic) [rac-hermitamide A], the “% [3H]-BTX Displacement At 10 μM” value [1] is reported as 15.71 ± 0.14 (2) %, the “Patch-clamp percentage block, 1 μM” value (human Nav1.2) is reported as 49.7 ± 3.8 (4) % and the “Patch-clamp percentage block, 10 μM” value (human Nav1.2) is reported as 90.2 ± 2.5 (3) %.
With `CCCCCCC[C@@H](C/C=C/CCC(=O)NCCc1c[nH]c2ccccc12)OC` (racemic) [rac-hermitamide B] the “% [3H]-BTX Displacement At 10 μM” value [1] was 36.05 ± 0.77 (2) %, the “Patch-clamp percentage block, 100 nM” value (human Nav1.2) was 24.3% and the “Patch-clamp percentage block, 1 μM” value (human Nav1.2) was 88.4 ± 2.9 (40%. For the same compound, the “Patch-clamp percentage block, 10 μM” value (human Nav1.2) was 100 (1) %.
For `CCCCCCCC(C/C=C/CCC(=O)O)OC` (racemic) [rac-lyngbic acid], the “% [3H]-BTX Displacement At 10 μM” value [1] was 7.35 ± 2.88 (2) % and the “Patch-clamp percentage block, 100 μM” value (human Nav1.2; 100 μM) was 55.6%.
For `CCCCCCC[C@](O)(C(N)=O)c1cccc(Cl)c1` [(R)-(−)-2-(3-chloro-phenyl)-2-hydroxy-nonanoic acid amide], the “cell death of CWR22rv-1 cells” value (CWR22rv-1 cells) was “induces cell death”.
For `CCCCCCC[C@H](C/C=C/CCC(=O)NCCc1ccccc1)OC` [(R)-hermitamide A, Phenethyl (7R,4E)-methoxytetradecenamide], the “% [3H]-BTX Displacement At 10 μM” value [1] was 13.79 ± 1.28 (2) % and the “Patch-clamp percentage block, 1 μM” value (human Nav1.2) was 58.7 ± 1.3 (4) %.
For `CCCCCCC[C@H](C/C=C/CCC(=O)NCCc1c[nH]c2ccccc12)OC` [(R)-hermitamide B, 2-(1H-indol-3-yl)-ethyl (7R,4E)-Methoxytetradecenamide], the “% [3H]-BTX Displacement At 10 μM” value [1] was 20.31 ± 5.82 (2) %, the “Patch-clamp percentage block, 100 nM” value (human Nav1.2) was 28.8% and the “Patch-clamp percentage block, 1 μM” value (human Nav1.2) was 93.6 (1) %.
In the case of `CCCCCCC[C@H](C/C=C/CCC(=O)O)OC` [(R)-lyngbic acid, (7R,4E)-Methoxytetradecenoic Acid], the “% [3H]-BTX Displacement At 10 μM” value [1] is reported as 11.91 ± 0.16 (2) %, the “Patch-clamp percentage block, 100 nM” value (human Nav1.2) is reported as 11.9% and the “Patch-clamp percentage block, 1 μM” value (human Nav1.2) is reported as 52.5 ± 3.9 (4) %.
With `CCCCCCC[C@@H](C/C=C/CCC(=O)NCCc1ccccc1)OC` [(S)-hermitamide A, Phenethyl (7S,4E)-methoxytetradecenamide] the “% [3H]-BTX Displacement At 10 μM” value [1] was 15.89 ± 3.06 (2) %, the “Patch-clamp percentage block, 1 μM” value (human Nav1.2) was ~50% and the “Patch-clamp percentage block, 10 μM” value (human Nav1.2) was 94.4 ± 1.3 (4) %.
In the case of `CCCCCCC[C@@H](C/C=C/CCC(=O)NCCc1c[nH]c2ccccc12)OC` [(S)-hermitamide B, 2-(1H-indol-3-yl)-ethyl (7S,4E)-Methoxytetradecenamide], the “% [3H]-BTX Displacement At 10 μM” value [1] is reported as 29.02 ± 0.29 (2) %, the “Patch-clamp percentage block, 1 μM” value (human Nav1.2) is reported as 80% and the “Patch-clamp percentage block, 1 μM” value (human Nav1.2; listed as Hermitamide B) is reported as ~80%. The “Patch-clamp percentage block, 10 μM” value (human Nav1.2) was 100 (3) %.
For `CCCCCCC[C@@H](C/C=C/CCC(=O)O)OC` [(S)-lyngbic acid, (7S,4E)-Methoxytetradecenoic Acid], the “% [3H]-BTX Displacement At 10 μM” value [1] was 7.77 ± 2.20 (2) % and the “Patch-clamp percentage block, 10 μM” value (human Nav1.2) was 44.4 ± 0.3 (4) %.
For `C#CC(O)(CCCCCCC)c1cccc(Cl)c1` (stereo not drawn) [Compound 12], the “[3H]-BTX-B Binding Data, Displacement %” value (site 2 of the VGSC) was 78%.
`C#C/C(=C\CCCCCC)c1cccc(Cl)c1` [Compound 13] was tested, and the “[3H]-BTX-B Binding Data, Displacement %” value (site 2 of the VGSC) was 32%.
In the case of `C=CCCCCCC1(c2cccc(Cl)c2)NC(=O)NC1=O` (stereo not drawn) [Compound 16], the “[3H]-BTX-B Binding Data, Displacement %” value (site 2 of the VGSC) is reported as 79%.
In the case of `C=CCCCCCC1(c2cccc(Cl)c2)NC(=O)N(Cc2ccccc2)C1=O` (stereo not drawn) [Compound 17], the “[3H]-BTX-B Binding Data, Displacement %” value (site 2 of the VGSC) is reported as 23%.
`O=C1NC(=O)C(CCCCCC2CO2)(c2cccc(Cl)c2)N1` (stereo not drawn) [Compound 18] was tested, and the “[3H]-BTX-B Binding Data, Displacement %” value (site 2 of the VGSC) was 28%.
For `O=C1NC(=O)C(CCCCCC2CC2)(c2cccc(Cl)c2)N1` (stereo not drawn) [Compound 20], the “[3H]-BTX-B Binding Data, Displacement %” value (site 2 of the VGSC) was 8%.
